For one data set, the system named is Boophilus microplus. Nature of the data set: Boophilus microplus test (BOOPMI injection). In kind it is in vivo. The conditions noted are these: application rate 20 μg/animal; injected into the abdomen; after 7 days. The procedure, abridged:
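Read-out after 7 days is % efficacy, judged by fertile egg laying, with 100% meaning no fertile eggs from any tick. Compound was given by abdominal injection as a DMSO solution diluted to the desired concentration. Treated ticks were held in dishes in a climate-controlled room.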

The test system of a further data set is Spodoptera frugiperda. The data set can be described thus: Spodoptera frugiperda test (SPODFR spray treatment). In kind it is in vivo. The conditions noted are these: application rate 500 g/ha; maize leaf discs; after 7 days. The method in brief: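 Mortality read-out at 7 days, given as % efficacy, where 100% means every caterpillar dead and 0% none. Caterpillars were placed on dried maize leaf discs that had been sprayed with test formulation. That formulation was an acetone/dimethylformamide concentrate diluted in emulsifier-containing water.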

The next data set deals with Tetranychus urticae. The data set can be described thus: Tetranychus test, OP-resistant (TETRUR spray treatment). The conditions noted are these: application rate 500 g/ha; bean leaf discs; after 6 days. The format is in vivo. The method in brief: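 Bean leaf discs infested with all stages of OP-resistant T. urticae sprayed with compound formulated in acetone/DMF plus alkylaryl polyglycol ether emulsifier, diluted in water. Efficacy (% mites killed) scored after 6 days.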

Another data set has as its system Amblyomma hebraeum. The data set can be described thus: Amblyomma hebaraeum test (AMBYHE). In kind it is in vivo. Particulars: application rate 100 ppm; tick nymphs immersed one minute; after 42 days. Here is the method:
Amblyomma hebaraeum Test (AMBYHE) Solvent: dimethyl sulphoxide To prepare an appropriate active ingredient formulation, 10 mg of active ingredient are mixed with 0.5 ml of dimethyl sulphoxide and the concentrate is diluted with water to the desired concentration. Tick nymphs (Amblyomma hebraeum) are placed into perforated plastic beakers and immersed in the desired concentration for one minute. The ticks are transferred on filter paper into a Petri dish and stored in a climate-controlled cabinet. After 42 days, the kill in % is determined 100% means that all of the ticks have been killed; 0% means that none of the ticks have been killed.

In a further data set the test system is Phaedon cochleariae. The data set can be described thus: Phaedon test (PHAECO spray treatment). In kind it is in vivo. The conditions noted are these: application rate 500 g/ha; Chinese cabbage leaf discs; after 7 days. The method in brief:
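Larval mortality was assessed 7 days after Phaedon cochleariae larvae were placed on dried, spray-treated Brassica pekinensis leaf discs. The formulation was an acetone/dimethylformamide concentrate with alkylaryl polyglycol ether emulsifier, diluted in emulsifier-containing water. Results are given as % kill, from 0 (no larvae dead) to 100 (all dead).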

A further data set has as its system Ctenocephalides felis. Nature of the data set: Ctenocephalides felis oral (CTECFE). The conditions noted are these: application rate 100 ppm in citrated cattle blood; after 2 days. In kind it is in vivo. The method in brief: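 Readout is percent mortality after 2 days (0–100%) in roughly 20 unfed adult fleas. The fleas had imbibed citrated cattle blood dosed with compound through Parafilm, with the compound diluted from a DMSO concentrate.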

Another data set has as its system adult Musca domestica. The data set can be described thus: Musca domestica test (MUSCDO). Particulars: application rate 100 ppm; treated sponge; after 2 days. The format is in vivo. The method in brief:
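After 2 days' exposure to a treated sponge, adult house fly mortality was recorded as kill %. Formulation: active ingredient in dimethyl sulphoxide, then water dilution to the test concentration.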

A further data set is described as follows: logP (HPLC-MS). Particulars: HPLC, reversed-phase column (C18), acidic range pH 2.7, acetonitrile (0.1% formic acid)/water gradient, 43° C., calibration with unbranched alkan-2-ones. In kind it is physicochemical.
The next data set relates to Lucilia cuprina larvae. Nature of the data set: Lucilia cuprina test (LUCICU). In kind it is in vivo. Particulars: application rate 100 ppm; treated horse meat; after 2 days. The method in brief: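 Mortality scored as percent of larvae killed 2 days after exposure. Horse meat was treated with the compound, formulated from DMSO stock diluted with water to the test concentration, and populated with roughly 20 larvae.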

Structures are written as SMILES.

In the case of `C#CCn1c(C(=O)NC(c2ccc(F)c(Br)c2)C(F)(F)F)cc2cc(C(=O)NC3CC3)c(Cl)cc21` (stereo not drawn) [Compound 14], the “efficacy (laying of fertile eggs)” value in the data set with Boophilus microplus amounted to 100%. Also, the efficacy in % in the data set with Spodoptera frugiperda, with Tetranychus urticae and in the data set on Phaedon cochleariae was 100% in each case. The “efficacy (kill in %)” value in the data set on Amblyomma hebraeum, with Ctenocephalides felis, in the data set on adult Musca domestica and in the data set on Lucilia cuprina larvae was 100% each time. Further, the log p in the data set “logP (HPLC-MS)” was 3.52.
